Reference: patent publication US7998978B2 (Pfizer Inc., priority 2006, dated 2011)

Biological target: T1, JNK1α1 (Homo sapiens, UniProt P45983)
T1 construct: catalytic domain containing amino acids 1-364 and N-terminal hexahistidine tag; hexahistidine (His6) (N); made in house; host or cells: E. coli BL21 (DE3)
Experiment: Coupled spectrophotometric (PK/LDH) JNK1α1 assay: % inhibition and Ki determination
Type: biochemical
Settings: @1 uM; read-out: % Inhibition JNK-1
Procedure, shortened: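 Initial rates were taken from the absorbance decrease at 340 nm at 30° C. Ki was fitted with a tight-binding model over 11 concentrations (top 100 μM); single-point inhibition was tested at 1 or 10 μM.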

T1 sequence (P45983 1-364): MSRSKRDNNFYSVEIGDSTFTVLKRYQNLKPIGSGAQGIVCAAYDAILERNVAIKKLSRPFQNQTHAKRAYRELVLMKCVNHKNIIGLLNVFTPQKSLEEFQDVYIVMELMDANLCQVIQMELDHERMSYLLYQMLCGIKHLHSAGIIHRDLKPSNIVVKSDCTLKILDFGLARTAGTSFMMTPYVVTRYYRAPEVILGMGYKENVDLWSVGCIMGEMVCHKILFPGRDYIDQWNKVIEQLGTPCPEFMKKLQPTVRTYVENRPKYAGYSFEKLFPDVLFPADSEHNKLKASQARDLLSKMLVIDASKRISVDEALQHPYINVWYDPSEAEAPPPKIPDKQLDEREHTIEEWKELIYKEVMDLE

| SMILES | inhibition at 1 µM [%] |
| --- | --- |
| CN(C)C(C)(C)COc1ccc2cnc(N[C@H]3CC[C@H](O)CC3)nc2c1 [Example 269, trans-4-({7-[2-(dimethylamino)-2-methylpropoxy]quinazolin-2-yl}amino)cyclohexanol] | 29 |
| COCCOc1cccc2cnc(N[C@H]3CC[C@H](O)CC3)nc12 [Example 256, trans-4-{[8-(2-methoxyethoxy)quinazolin-2-yl]amino}cyclohexanol] | 29 |
| CC(COc1cccc2cnc(N[C@H]3CC[C@H](O)CC3)nc12)N(C)C (stereo partly drawn) [Example 266, trans-4-({8-[2-(dimethylamino)propoxy]quinazolin-2-yl}amino)cyclohexanol] | 14 |
| CN(C)C(C)(C)COc1cccc2cnc(N[C@H]3CC[C@H](O)CC3)nc12 [Example 251, trans-4-({8-[2-(dimethylamino)-2-methylpropoxy]quinazolin-2-yl}amino)cyclohexanol] | 19 |
| O=C(NCCc1ccccn1)c1cccc2cnc(N[C@H]3CC[C@H](O)CC3)nc12 [Example 469, 2-[(trans-4-hydroxycyclohexyl)amino]-N-(2-pyridin-2-ylethyl)quinazoline-8-carboxamide] | 10 |
| CC(C)Nc1ncc2ccc(C(=O)NC3(CO)CCCC3)cc2n1 [Example 423, N-[1-(hydroxymethyl)cyclopentyl]-2-(isopropylamino)quinazoline-7-carboxamide] | 15 |
| CNC(=O)[C@H](C)NC(=O)c1cccc2cnc(N[C@H]3CC[C@H](O)CC3)nc12 [Example 516, 2-[(trans-4-hydroxycyclohexyl)amino]-N-[(1S)-1-methyl-2-(methylamino)-2-oxoethyl]quinazoline-8-carboxamide] | 26 |
| O[C@H]1CC[C@H](Nc2ncc3ccc(OC[C@@H]4CCCN4Cc4ccccc4)cc3n2)CC1 [Example 276, trans-4-[(7-{[(2S)-1-benzylpyrrolidin-2-yl]methoxy}quinazolin-2-yl)amino]cyclohexanol] | 22 |
| CC(C)Nc1ncc2ccc(C(=O)NCCO)cc2n1 [Example 431, N-(2-hydroxyethyl)-2-(isopropylamino)quinazoline-7-carboxamide] | 15 |

Same assay, conditions: @10 uM; read-out: % Inhibition JNK-1

| SMILES | inhibition at 10 µM [%] |
| --- | --- |
| Cc1ccn2cc(CCNC(=O)c3cccc4cnc(N[C@H]5CC[C@H](O)CC5)nc34)nc2n1 [Example 524, 2-[(trans-4-hydroxycyclohexyl)amino]-N-[2-(7-methylimidazo[1,2-a]pyrimidin-2-yl)ethyl]quinazoline-8-carboxamide] | 47 |
| CCc1cc(CNC(=O)c2cccc3cnc(N[C@H]4CC[C@H](O)CC4)nc23)on1 [Example 484, N-[(3-ethylisoxazol-5-yl)methyl]-2-[(trans-4-hydroxycyclohexyl)amino]quinazoline-8-carboxamide] | 57 |
| Cc1nccn1CCNC(=O)c1cccc2cnc(N[C@H]3CC[C@H](O)CC3)nc12 [Example 485, 2-[(trans-4-hydroxycyclohexyl)amino]-N-[2-(2-methyl-1H-imidazol-1-yl)ethyl]quinazoline-8-carboxamide] | 72 |
| CC(C)(CO)NC(=O)c1ccc2cnc(NC3CCCC3)nc2c1 [Example 438, 2-(cyclopentylamino)-N-(2-hydroxy-1,1-dimethylethyl)quinazoline-7-carboxamide] | 63 |

Same assay, conditions: JNK-1

| SMILES | Ki [nM] |
| --- | --- |
| c1ccc2ncc(CNc3cc4cc(-c5cn[nH]c5)ccc4cn3)cc2c1 [Example 220, 6-(1H-pyrazol-4-yl)-N-(quinolin-3-ylmethyl)isoquinolin-3-amine] | 1930 |
| CC(C)Nc1ncc2ccc(C(=O)N[C@H](CO)c3ccccc3)cc2n1 [Example 394, N-[(1S)-2-hydroxy-1-phenylethyl]-2-(isopropylamino)quinazoline-7-carboxamide] | 391 |
| COc1ccc(CCC(=O)Nc2cc3cc(-c4cn[nH]c4)ccc3cn2)cc1 [Example 20, 3-(4-methoxyphenyl)-N-[6-(1H-pyrazol-4-yl)isoquinolin-3-yl]propanamide] | 44 |
| C[C@@H](CO)NC(=O)c1cccc2cnc(N[C@H]3CC[C@H](O)CC3)nc12 [Example 122, 2-[(trans-4-hydroxycyclohexyl)amino]-N-[(1S)-2-hydroxy-1-methylethyl]quinazoline-8-carboxamide] | 82 |
| c1ccc2nc(NC3CCCCC3)ncc2c1 [Example 147] | 460 |
| CNC(=O)N1CCC(NC(=O)c2cccc3cnc(N[C@H]4CC[C@H](O)CC4)nc23)CC1 [Example 467, 2-[(trans-4-hydroxycyclohexyl)amino]-N-{1-[(methylamino)carbonyl]piperidin-4-yl}quinazoline-8-carboxamide] | 2050 |
| CC[C@@H](CO)NC(=O)c1ccc2cnc(N[C@H]3CC[C@H](O)CC3)nc2c1 [Example 334, 2-[(trans-4-hydroxycyclohexyl)amino]-N-[(1S)-1-(hydroxymethyl)propyl]quinazoline-7-carboxamide] | 480 |
| CS(=O)(=O)N[C@H]1CC[C@H](Nc2ncc3cccc(OC4CCOC4)c3n2)CC1 (stereo partly drawn) [Example 187, N-(trans-4-{[8-(tetrahydrofuran-3-yloxy)quinazolin-2-yl]amino}cyclohexyl)methanesulfonamide] | 414 |
| O=C(NCc1ccccc1)c1cccc2cnc(N[C@H]3CC[C@H](O)CC3)nc12 [Example 124, N-benzyl-2-[(trans-4-hydroxycyclohexyl)amino]quinazoline-8-carboxamide] | 410 |
| O=C(N[C@@H]1CCCC[C@@H]1CO)c1cccc2cnc(N[C@H]3CC[C@H](O)CC3)nc12 [Example 446, 2-[(trans-4-hydroxycyclohexyl)amino]-N-[(1R,2S)-2-(hydroxymethyl)cyclohexyl]quinazoline-8-carboxamide] | 112 |
| CC(C)C(=O)Nc1cc2cc(-c3cn[nH]c3)ccc2cn1 [Example 16, 2-methyl-N-[6-(1H-pyrazol-4-yl)isoquinolin-3-yl]propanamide] | 31 |
| CC(=O)N1CCC(C(=O)Nc2cc3cc(-c4cn[nH]c4)ccc3cn2)CC1 [Example 15, 1-acetyl-N-[6-(1H-pyrazol-4-yl)isoquinolin-3-yl]piperidine-4-carboxamide] | 24 |
| O=C(NCC1(O)CCCC1)c1cccc2cnc(N[C@H]3CC[C@H](O)CC3)nc12 [Example 460, 2-[(trans-4-hydroxycyclohexyl)amino]-N-[(1-hydroxycyclopentyl)methyl]quinazoline-8-carboxamide] | 400 |
| O=C(NC1(c2cccnc2)CC1)c1cccc2cnc(N[C@H]3CC[C@H](O)CC3)nc12 [Example 464, 2-[(trans-4-hydroxycyclohexyl)amino]-N-(1-pyridin-3-ylcyclopropyl)quinazoline-8-carboxamide] | 685 |
| Cc1sc(-c2ccccc2)nc1CC(=O)Nc1cc2cc(-c3cn[nH]c3)ccc2cn1 [Example 46, 2-(5-methyl-2-phenyl-1,3-thiazol-4-yl)-N-[6-(1H-pyrazol-4-yl)isoquinolin-3-yl]acetamide] | 5 |
| COCCNC(=O)c1cccc2cnc(N[C@H]3CC[C@H](O)CC3)nc12 [Example 109, 2-[(trans-4-hydroxycyclohexyl)amino]-N-(2-methoxyethyl)quinazoline-8-carboxamide] | 678 |
| O=C(NC1CCS(=O)(=O)C1)c1ccc2cnc(N[C@H]3CC[C@H](O)CC3)nc2c1 (stereo partly drawn) [Example 60, N-(1,1-dioxidotetrahydro-3-thienyl)-2-[(trans-4-hydroxycyclohexyl)amino]quinazoline-7-carboxamide] | 157 |
| COc1cccc2cnc(NC3CCCCC3)nc12 [Example 149] | 485 |
| CC(=O)N1CCC(c2cccc3cnc(N[C@H]4CC[C@H](O)CC4)nc23)C1 (some centres unmarked) [Example 197] | 143 |
| O=C(NCC1CCCCO1)c1ccc2cnc(N[C@H]3CC[C@H](O)CC3)nc2c1 (stereo partly drawn) [Example 348, 2-[(trans-4-hydroxycyclohexyl)amino]-N-(tetrahydro-2H-pyran-2-ylmethyl)quinazoline-7-carboxamide] | 978 |
| CS(=O)(=O)N[C@H]1CC[C@H](Nc2ncc3ccc(OC4CCOC4)cc3n2)CC1 (stereo partly drawn) [Example 162, N-(trans-4-{[7-(tetrahydrofuran-3-yloxy)quinazolin-2-yl]amino}cyclohexyl)methanesulfonamide] | 260 |
| CC(C(=O)Nc1cc2cc(-c3cn[nH]c3)ccc2cn1)c1ccccc1 (centres unmarked) [Example 8, 2-phenyl-N-[6-(1H-pyrazol-4-yl)isoquinolin-3-yl]propanamide] | > 50 |
| O=C(NCC(O)c1ccccc1)c1cccc2cnc(N[C@H]3CC[C@H](O)CC3)nc12 (stereo partly drawn) [Example 443, 2-[(trans-4-hydroxycyclohexyl)amino]-N-(2-hydroxy-2-phenylethyl)quinazoline-8-carboxamide] | 104 |
| N#Cc1cc(CNc2cc3cc(-c4cn[nH]c4)ccc3cn2)ccc1F [Example 226, 2-fiuoro-5-({[6-(1H-pyrazol-4-yl)isoquinolin-3-yl]amino}methyl)benzonitrile] | 5270 |
| C[C@@H](CO)NC(=O)c1ccc2cnc(NC3CCCC3)nc2c1 [Example 418, 2-(cyclopentylamino)-N-[(1S)-2-hydroxy-1-methylethyl]quinazoline-7-carboxamide] | 1720 |
| N[C@H]1CC[C@H](Nc2ncc3cccc(OC4CCOC4)c3n2)CC1 (stereo partly drawn) [Example 177, trans-N-[8-(tetrahydrofuran-3-yloxy)quinazolin-2-yl]cyclohexane-1,4-diamine] | 914 |
| NC[C@@H](NC(=O)c1ccc2cnc(N[C@H]3CC[C@H](O)CC3)nc2c1)c1ccccc1 [Example 101, N-[(1S)-2-amino-1-phenylethyl]-2-[(trans-4-hydroxycyclohexyl)amino]quinazoline-7-carboxamide] | 94 |
| CN(C)C(=O)CNC(=O)c1ccc2cnc(N[C@H]3CC[C@H](O)CC3)nc2c1 [Example 368, N-[2-(dimethylamino)-2-oxoethyl]-2-[(trans-4-hydroxycyclohexyl)amino]quinazoline-7-carboxamide] | 2290 |
